Consider six molecules from ChEMBL document CHEMBL1124638, “2,4-Diamino-5-benzylpyrimidines and analogues as antibacterial agents. 10. 2,4-Diamino-5-(6-quinolylmethyl)- and -[(tetrahydro-6-quinolyl)methyl]pyrimidine derivatives. Further specificity studies” (J Med Chem, 1989).

Assay [1] concerns Bordetella bronchiseptica. Nature of the assay: Comparative in vitro antibacterial activity with trimethoprim against Bordetella bronchiseptica CN385. It is filed as functional.
In another assay the test system is Citrobacter freundii. The assay is described as follows: Comparative in vitro antibacterial activity with trimethoprim against Citrobacter freundii 2200/77. The class given is functional.
The target of assay [2] is T1, Dihydrofolate reductase (Rattus norvegicus, UniProt Q920D2).
T1 sequence (Q920D2 whole entry): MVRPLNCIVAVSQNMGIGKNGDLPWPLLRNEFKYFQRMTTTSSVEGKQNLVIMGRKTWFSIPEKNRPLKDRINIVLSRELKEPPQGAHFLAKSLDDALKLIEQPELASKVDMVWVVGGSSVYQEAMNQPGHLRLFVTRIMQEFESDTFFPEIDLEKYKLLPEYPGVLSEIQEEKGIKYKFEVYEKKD
The assay is described as follows: Inhibitory activity against dihydrofolate reductase in rat liver. The settings on record: read-out: I50.

Assay [3] addresses Dihydrofolate reductase (Neisseria gonorrhoeae, UniProt P04174). The assay is described as follows: Inhibitory activity against Dihydrofolate reductase in Neisseria gonorrhoeae. The settings on record: read-out: I50.
The test system of another assay is Escherichia coli. Nature of the assay: Comparative in vitro antibacterial activity with trimethoprim against Escherichia coli CN314. It is filed as functional.
For another assay, the system named is Klebsiella aerogenes. Nature of the assay: Comparative in vitro antibacterial activity with trimethoprim against Enterobacter aerogenes 2200/86. The class given is functional.
Assay [4] relates to Mycolicibacterium smegmatis. Nature of the assay: Comparative in vitro antibacterial activity with trimethoprim against Mycobacterium smegmatis S 3254. It is filed as functional.
In the next assay the test system is Proteus vulgaris. Nature of the assay: Comparative in vitro antibacterial activity with trimethoprim against Proteus vulgaris CN329. The class given is functional.
The nature of assay [5]: Comparative in vitro antibacterial activity with trimethoprim against Salmonella typhi CN512. The class given is functional, salmonella typhosa.
In another assay the test system is Shigella flexneri. The assay is described as follows: Comparative in vitro antibacterial activity with trimethoprim against Shigella flexneri CN6007. It is filed as functional.
For a further assay, the system named is Serratia marcescens. The assay is described as follows: Comparative in vitro antibacterial activity with trimethoprim against Serratia marcescens CN2398. It is filed as functional.
The next assay concerns Salmonella typhimurium. Nature of the assay: Comparative in vitro antibacterial activity with trimethoprim against Salmonella Typhimurium S 8587. It is filed as functional, Salmonella enterica subsp. enterica serovar Typhimurium. Conditions: Salmonella enterica.
For a further assay, the system named is Streptococcus pyogenes. Nature of the assay: Comparative in vitro antibacterial activity of compound with trimethoprim against Streptococcus pyogenes CN10. The class given is functional.
The subject of a further assay is Staphylococcus aureus. The assay is described as follows: Comparative in vitro antibacterial activity with trimethoprim against Staphylococcus aureus CN491. It is filed as functional.
In another assay the test system is Enterococcus faecalis. Nature of the assay: Comparative in vitro antibacterial activity with trimethoprim against Streptococcus faecalis CN478. It is filed as functional.
The test system of the next assay is Streptococcus agalactiae. The assay is described as follows: Comparative in vitro antibacterial activity with trimethoprim against Streptococcus agalactiae CN1143. The class given is functional.
Another assay relates to Vibrio cholerae. The assay is described as follows: Comparative in vitro antibacterial activity with trimethoprim against Vibrio cholerae ATCC 14035. The class given is functional.
A further assay deals with Pasteurella multocida. Nature of the assay: Comparative in vitro antibacterial activity with trimethoprim against Pasteurella multocida ATCC 6587. The class given is functional.
A further assay deals with Klebsiella pneumoniae. Nature of the assay: Comparative in vitro antibacterial activity with trimethoprim against Klebsiella pneumoniae CN3632. It is filed as functional.
Another assay has as its system Proteus mirabilis. The assay is described as follows: Comparative in vitro antibacterial activity with trimethoprim against Proteus mirabilis S2409. It is filed as functional.

In general, MIC refers to the lowest concentration found to suppress growth. Read a low MIC as greater potency.

In brackets after ≈: the same amount, converted by molar mass.

Sequence of Dihydrofolate reductase (Neisseria gonorrhoeae, UniProt P04174) (P04174 whole entry): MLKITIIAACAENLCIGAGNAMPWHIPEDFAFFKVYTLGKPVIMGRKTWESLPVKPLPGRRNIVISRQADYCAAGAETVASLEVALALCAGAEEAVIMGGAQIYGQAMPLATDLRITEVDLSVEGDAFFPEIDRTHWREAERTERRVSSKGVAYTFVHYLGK

Regarding `COCCN1CCC(C)c2cc(Cc3cnc(N)nc3N)cc(OC)c21` (stereo not given), the MIC was 100 µg/mL (≈ 280 µM) in assay [1]; 100 µg/mL (≈ 280 µM) against Citrobacter freundii; 30 µg/mL (≈ 83.9 µM) against Escherichia coli; 30 µg/mL (≈ 83.9 µM) against Klebsiella aerogenes; 10 µg/mL (≈ 28 µM) in [4]; over 100 µg/mL against Proteus vulgaris. Further, the MIC is 30 µg/mL (≈ 83.9 µM) in [5]; 100 µg/mL (≈ 280 µM) with Shigella flexneri; over 10 µg/mL in the assay on Serratia marcescens; 100 µg/mL (≈ 280 µM) against Salmonella typhimurium; 1 µg/mL (≈ 2.8 µM) against Streptococcus pyogenes; 3 µg/mL (≈ 8.39 µM) against Staphylococcus aureus. For the same molecule, the MIC worked out at 0.3 µg/mL (≈ 0.839 µM) with Enterococcus faecalis; 3 µg/mL (≈ 8.39 µM) in the assay with Streptococcus agalactiae; 100 µg/mL (≈ 280 µM) against Vibrio cholerae; 30 µg/mL (≈ 83.9 µM) against Pasteurella multocida; 30 µg/mL (≈ 83.9 µM) in the assay on Klebsiella pneumoniae. Moreover, the results for the IC50 on Dihydrofolate reductase [2] and on Dihydrofolate reductase [3] were 260 µM and 1400 nM, respectively.

`Cc1ccnc2c([N+](=O)[O-])cc(Cc3cnc(N)nc3N)cc12`: the MIC in [1] turned out to be 3 µg/mL (≈ 9.67 µM); in the assay on Citrobacter freundii, 10 µg/mL (≈ 32.2 µM); against Escherichia coli it was 10 µg/mL (≈ 32.2 µM); against Klebsiella aerogenes, 10 µg/mL (≈ 32.2 µM); in assay [4] it was 1 µg/mL (≈ 3.22 µM); against Proteus mirabilis, 10 µg/mL (≈ 32.2 µM). The MIC in the assay with Proteus vulgaris came to 10 µg/mL (≈ 32.2 µM); in [5] it was 3 µg/mL (≈ 9.67 µM); with Shigella flexneri it was 10 µg/mL (≈ 32.2 µM); with Serratia marcescens it was 30 µg/mL (≈ 96.7 µM); against Salmonella typhimurium, 10 µg/mL (≈ 32.2 µM); against Streptococcus pyogenes it was 1 µg/mL (≈ 3.22 µM). The MIC in the assay on Staphylococcus aureus turned out to be 1 µg/mL (≈ 3.22 µM); against Enterococcus faecalis, 3 µg/mL (≈ 9.67 µM); against Streptococcus agalactiae, 1 µg/mL (≈ 3.22 µM); in the assay on Vibrio cholerae, 1 µg/mL (≈ 3.22 µM); in the assay with Pasteurella multocida it was 3 µg/mL (≈ 9.67 µM); against Klebsiella pneumoniae, 10 µg/mL (≈ 32.2 µM). For the same molecule, the IC50 at Dihydrofolate reductase [2] was found to be 5.7 µM.

As to `COc1cc(Cc2cnc(N)nc2N)cc2c1N(C)CCC2C` (stereo not given), the MIC (in [1]; in the assay with Citrobacter freundii; in the assay with Escherichia coli; against Klebsiella aerogenes; in assay [4]; in the assay on Proteus mirabilis) was 3 µg/mL (≈ 9.57 µM) throughout. Moreover, the MIC in the assay on Proteus vulgaris came to 10 µg/mL (≈ 31.9 µM); in [5], 3 µg/mL (≈ 9.57 µM); against Shigella flexneri it was 10 µg/mL (≈ 31.9 µM); against Serratia marcescens, 3 µg/mL (≈ 9.57 µM); against Salmonella typhimurium, 10 µg/mL (≈ 31.9 µM); against Staphylococcus aureus, 1 µg/mL (≈ 3.19 µM). Also, the MIC in the assay on Enterococcus faecalis stood at 0.3 µg/mL (≈ 0.957 µM); against Streptococcus agalactiae, 0.3 µg/mL (≈ 0.957 µM); against Vibrio cholerae, 3 µg/mL (≈ 9.57 µM); against Pasteurella multocida it was 3 µg/mL (≈ 9.57 µM); with Klebsiella pneumoniae it was 3 µg/mL (≈ 9.57 µM). In addition, at Dihydrofolate reductase [3], the IC50 stood at 890 nM.

`CN1CCCc2cc(Cc3cnc(N)nc3N)ccc21`: the MIC in assay [1] is 30 µg/mL (≈ 111 µM); against Citrobacter freundii it was 30 µg/mL (≈ 111 µM); against Escherichia coli it was 30 µg/mL (≈ 111 µM); with Klebsiella aerogenes it was 30 µg/mL (≈ 111 µM); in assay [4] it was 10 µg/mL (≈ 37.1 µM); against Proteus mirabilis, 10 µg/mL (≈ 37.1 µM). Besides, the MIC against Proteus vulgaris turned out to be 30 µg/mL (≈ 111 µM); in assay [5] it was 30 µg/mL (≈ 111 µM); against Shigella flexneri, 10 µg/mL (≈ 37.1 µM); in the assay on Serratia marcescens, 30 µg/mL (≈ 111 µM); with Salmonella typhimurium, 30 µg/mL (≈ 111 µM); with Staphylococcus aureus it was 10 µg/mL (≈ 37.1 µM). Also, the MIC in the assay with Enterococcus faecalis was 3 µg/mL (≈ 11.1 µM); with Streptococcus agalactiae, 10 µg/mL (≈ 37.1 µM); in the assay on Vibrio cholerae, 10 µg/mL (≈ 37.1 µM); with Pasteurella multocida, 30 µg/mL (≈ 111 µM); against Klebsiella pneumoniae, 30 µg/mL (≈ 111 µM). The figures for the IC50 on Dihydrofolate reductase [2] and at Dihydrofolate reductase [3] were 89 µM and 950 nM, respectively.

With `CC1CCNc2ccc(Cc3cnc(N)nc3N)cc21` (stereo not given), the MIC in assay [1] turned out to be 10 µg/mL (≈ 37.1 µM); in the assay with Citrobacter freundii, 30 µg/mL (≈ 111 µM); against Escherichia coli it was 30 µg/mL (≈ 111 µM); against Klebsiella aerogenes, 10 µg/mL (≈ 37.1 µM); in [4], 3 µg/mL (≈ 11.1 µM); against Proteus mirabilis it was 10 µg/mL (≈ 37.1 µM). For the same molecule, the MIC worked out at 10 µg/mL (≈ 37.1 µM) in the assay with Proteus vulgaris; 10 µg/mL (≈ 37.1 µM) in [5]; 30 µg/mL (≈ 111 µM) in the assay on Shigella flexneri; 10 µg/mL (≈ 37.1 µM) with Serratia marcescens; 10 µg/mL (≈ 37.1 µM) against Salmonella typhimurium; 1 µg/mL (≈ 3.71 µM) with Streptococcus pyogenes. In addition, the MIC with Staphylococcus aureus stood at 3 µg/mL (≈ 11.1 µM); against Enterococcus faecalis it was 3 µg/mL (≈ 11.1 µM); with Streptococcus agalactiae, 3 µg/mL (≈ 11.1 µM); in the assay with Vibrio cholerae, 3 µg/mL (≈ 11.1 µM); against Pasteurella multocida, 3 µg/mL (≈ 11.1 µM); in the assay with Klebsiella pneumoniae, 30 µg/mL (≈ 111 µM). The IC50 came to 22 µM at Dihydrofolate reductase [2] and 400 nM at Dihydrofolate reductase [3].

Regarding `CC1CC(C)c2cc(Cc3cnc(N)nc3N)cc(Cl)c2N1` (stereo not given), the MIC in assay [1] was 100 µg/mL (≈ 315 µM); in the assay with Citrobacter freundii, 100 µg/mL (≈ 315 µM); against Escherichia coli, 100 µg/mL (≈ 315 µM); in the assay with Klebsiella aerogenes, 100 µg/mL (≈ 315 µM); in assay [4], 10 µg/mL (≈ 31.5 µM); in the assay with Proteus mirabilis, 30 µg/mL (≈ 94.4 µM). Also, the MIC was 100 µg/mL (≈ 315 µM) in the assay on Proteus vulgaris; 100 µg/mL (≈ 315 µM) in [5]; 300 µg/mL (≈ 944 µM) against Shigella flexneri; over 10 µg/mL in the assay with Serratia marcescens; 100 µg/mL (≈ 315 µM) against Salmonella typhimurium; 3 µg/mL (≈ 9.44 µM) against Streptococcus pyogenes. The MIC in the assay on Staphylococcus aureus stood at 3 µg/mL (≈ 9.44 µM); against Enterococcus faecalis, 3 µg/mL (≈ 9.44 µM); against Streptococcus agalactiae, 3 µg/mL (≈ 9.44 µM); in the assay with Vibrio cholerae it was 3 µg/mL (≈ 9.44 µM); in the assay on Pasteurella multocida, 30 µg/mL (≈ 94.4 µM); against Klebsiella pneumoniae, 100 µg/mL (≈ 315 µM). The IC50 at Dihydrofolate reductase [2] was 41 µM; at Dihydrofolate reductase [3], 240 nM.
